Assay results as given in patent publication US9951071B2 (priority 2012, dated 2018).
Structures can show the parent of a compound that is named as a salt. Where two headings read alike, the source gives them in different places.

Columns and labels:
[1] = rcm bond, 12-membered ring
[2] = target: purified human plasma kallikrein (Homo sapiens (Human), UniProt P03952); test: biochemical
[3] = target: purified human Factor XIa (Homo sapiens (Human), UniProt P03951); test: biochemical
[4] = rcm bond, 12-membered ring, Grubbs II/pTsOH, DCM
[5] = from C=CC[C@H](NC(=O)OC(C)(C)C)c1cc(-c2ccccc2NC(=O)C(C=C)C(C)C)ccn1, Grubbs II (2 x 0.2 eq), microwave, DCE, 40.0 mM, […]

purified human Factor XIa, sequence (P03951 whole entry, looked up): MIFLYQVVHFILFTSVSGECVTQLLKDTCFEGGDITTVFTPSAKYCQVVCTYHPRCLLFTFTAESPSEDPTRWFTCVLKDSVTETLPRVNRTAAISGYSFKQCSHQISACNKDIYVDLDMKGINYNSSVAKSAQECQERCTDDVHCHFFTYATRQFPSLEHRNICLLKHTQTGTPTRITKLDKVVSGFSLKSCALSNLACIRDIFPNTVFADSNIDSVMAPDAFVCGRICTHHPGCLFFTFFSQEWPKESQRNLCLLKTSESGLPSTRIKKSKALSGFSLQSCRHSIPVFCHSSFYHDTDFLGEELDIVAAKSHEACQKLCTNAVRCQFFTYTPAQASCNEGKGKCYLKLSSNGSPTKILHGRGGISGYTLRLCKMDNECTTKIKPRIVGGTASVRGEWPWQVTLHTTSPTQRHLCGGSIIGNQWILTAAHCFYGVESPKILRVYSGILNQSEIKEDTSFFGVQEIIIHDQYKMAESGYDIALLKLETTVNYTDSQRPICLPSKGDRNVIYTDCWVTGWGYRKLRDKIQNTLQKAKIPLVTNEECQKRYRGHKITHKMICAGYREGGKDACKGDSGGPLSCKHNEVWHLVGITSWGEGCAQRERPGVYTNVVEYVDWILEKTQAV
purified human Factor XIa, sequence (P03951 whole entry, looked up): as above
purified human plasma kallikrein, sequence (P03952 whole entry, looked up): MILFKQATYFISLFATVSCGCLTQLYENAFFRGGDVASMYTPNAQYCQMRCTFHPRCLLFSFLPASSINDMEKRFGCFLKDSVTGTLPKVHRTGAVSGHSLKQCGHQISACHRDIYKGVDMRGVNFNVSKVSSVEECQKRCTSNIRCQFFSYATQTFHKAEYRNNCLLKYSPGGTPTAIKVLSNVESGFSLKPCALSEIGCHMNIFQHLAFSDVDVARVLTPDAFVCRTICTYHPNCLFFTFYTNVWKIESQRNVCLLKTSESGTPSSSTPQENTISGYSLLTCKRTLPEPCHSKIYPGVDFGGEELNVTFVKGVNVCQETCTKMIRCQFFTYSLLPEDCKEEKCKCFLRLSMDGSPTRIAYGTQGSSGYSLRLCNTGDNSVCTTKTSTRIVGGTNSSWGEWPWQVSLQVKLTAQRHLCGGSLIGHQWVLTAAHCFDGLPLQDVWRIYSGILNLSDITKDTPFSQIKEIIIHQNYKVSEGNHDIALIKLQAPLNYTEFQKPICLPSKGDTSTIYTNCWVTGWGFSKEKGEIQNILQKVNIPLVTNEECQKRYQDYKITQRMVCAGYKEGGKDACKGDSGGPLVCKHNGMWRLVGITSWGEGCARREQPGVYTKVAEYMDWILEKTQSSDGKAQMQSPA
purified human plasma kallikrein, sequence (P03952 whole entry, looked up): as above

Compound `C[C@@H]1/C=C/C[C@H](NC(=O)OC(C)(C)C)c2cc(ccn2)-c2ccccc2NC1=O` has a ring closure, isolated yield ([1]; from C=CC[C@H](NC(=O)OC(C)(C)C)c1cc(-c2ccccc2NC(=O)[C@H](C)C=C)ccn1, Grubbs II/pTsOH, DCM, 11.8 mM, 40.0 °C, 4.5 h) of 78%.
Compound `C[C@@H]1CCC[C@H](N2CCC(c3c(F)ccc(Cl)c3F)=CC2=O)c2cc(ccn2)-c2ccncc2NC1=O` [Example 72, (10R,14S)-14-[4-(3-Chloro-2,6-difluorophenyl)-6-oxo-1,2,3,6-tetrahydropyridin-1-yl]-10-methyl-5,8,16-triazatricyclo[13.3.1.0^2,7]nonadeca-1(19),2(7),3,5,15,17-hexaen-9-one, TFA Salt] has a Ki [2] of 19 nM and a Ki [3] of 8.67 nM.
In the case of `COC(=O)c1ccc2c(c1)-c1cccc(c1)[C@@H](N1CC=C(c3c(F)ccc(Cl)c3F)CC1=O)CCC[C@@H](C)C(=O)N2` [Example 174, Methyl (10R,14S)-14-[4-(3-chloro-2,6-difluorophenyl)-2-oxo-1,2,3,6-tetrahydropyridin-1-yl]-10-methyl-9-oxo-8-azatricyclo[13.3.1.0^2,7]nonadeca-1(19),2,4,6,15,17-hexaene-4-carboxylate], the Ki [3] is reported as over 625 nM.
With `CC(C)[C@H]1/C=C/C[C@H](NC(=O)OC(C)(C)C)c2cc(ccn2)-c2ccccc2NC1=O` the ring closure, isolated yield [1, 5] was 8.9%.
“tert-butyl N-[(10R,11Z,14S)-17-methoxy-5-[(methoxycarbonyl)amino]-10-methyl-9-oxo-8,16-diazatricyclo[13.3.1.0^2,7]nonadeca-1(19),2,4,6,11,15,17-heptaen-14-yl]carbamate and tert-butyl N-[(10R,11E,14S)-17-methoxy-5-[(methoxycarbonyl)amino]-10-methyl-9-oxo-8,16-diazatricyclo[13.3.1.0^2,7]nonadeca-1(19),2,4,6,11,15,17-heptaen-14-yl]carbamate as a Mixture” showed a ring closure, yield after HPLC ([4]; 8.5 mM) of 29%.
`COC(=O)Nc1ccc2c(c1)C(=O)NC/C=C/C[C@H](NC(=O)OC(C)(C)C)c1cc-2ccn1` showed a ring closure, yield after HPLC ([4]; from C=CCNC(=O)c1cc(NC(=O)OC)ccc1-c1ccnc([C@H](CC=C)NC(=O)OC(C)(C)C)c1, […], 3.0 h) of 39.4%.
Compound `COC(=O)Nc1ccc2c(c1)NC(=O)[C@H](C)/C=C/C[C@H](NC(=O)OC(C)(C)C)c1nc-2cn1COCC[Si](C)(C)C` has a ring closure, isolated yield ([1]; from C=CC[C@H](NC(=O)OC(C)(C)C)c1nc(-c2ccc(NC(=O)OC)cc2NC(=O)[C@H](C)C=C)cn1COCC[Si](C)(C)C, Grubbs II (0.4 eq)/pTsOH, DCM, 10.0 mM, 40.0 °C, 21.5 h) of 40.7%.
For `COC(=O)c1ccc2c(c1)-c1cccc(c1)[C@@H](N1CC=C(c3c(Br)ccc(Cl)c3F)CC1=O)CCC[C@@H](C)C(=O)N2` [Example 176, Methyl (10R,14S)-14-[4-(6-bromo-3-chloro-2-fluorophenyl)-2-oxo-1,2,3,6-tetrahydropyridin-1-yl]-10-methyl-9-oxo-8-azatricyclo[13.3.1.0^2,7]nonadeca-1(19),2,4,6,15,17-hexaene-4-carboxylate], the Ki [3] was over 625 nM.
With `CC(C)[C@@H]1/C=C/C[C@H](NC(=O)OC(C)(C)C)c2cc(ccn2)-c2ccccc2NC1=O` the ring closure, isolated yield [1, 5] was 10.2%.
